Experimental data as given in patent publication US8883438B2, “Method for diagnosing cell proliferation disorders having a neoactive mutation at residue 97 of isocitrate dehydrogenase 1” (Agios Pharmaceuticals, Inc., priority 2009, dated 2014).

How the values were obtained:
IDH1 G97D = target: T1, IDH1 G97D (Homo sapiens, UniProt O75874, G97D); test: IDH1 G97D inhibition assay (NADPH/aKG, diaphorase/resazurin fluorescence readout); type: biochemical; conditions: 50 minutes at room temperature
T1 construct: Oligo nucleotides were designed to PCR out the coding region of IDH1 with NdeI at the 5′ end and XhoI at the 3′; Ser-Leu-Glu junction (stop codon changed to Ser, then Leu-Glu); made in house; host or cells: E. coli Rosetta
T1 sequence (O75874 whole entry G97D): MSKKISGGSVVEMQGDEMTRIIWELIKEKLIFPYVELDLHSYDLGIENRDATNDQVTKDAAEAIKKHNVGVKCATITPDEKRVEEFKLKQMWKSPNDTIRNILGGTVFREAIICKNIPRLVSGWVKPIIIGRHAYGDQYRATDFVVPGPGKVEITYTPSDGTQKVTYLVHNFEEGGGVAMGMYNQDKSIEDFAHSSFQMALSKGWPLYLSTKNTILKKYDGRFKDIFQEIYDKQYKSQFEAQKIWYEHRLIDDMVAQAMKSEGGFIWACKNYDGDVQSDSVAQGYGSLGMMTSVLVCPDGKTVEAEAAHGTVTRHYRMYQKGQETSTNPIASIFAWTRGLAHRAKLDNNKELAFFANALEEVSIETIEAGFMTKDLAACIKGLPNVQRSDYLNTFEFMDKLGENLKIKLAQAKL
Experimental: Assays were conducted in a standard 384-well plate in a reaction volume of 76 uL assay buffer (150 mM NaCl, 10 mM MgCl2, 20 mM Tris pH 7.5, 0.05% bovine serum albumin, 2 mM beta-mercaptoethanol) as follows: To 25 uL of substrate mix (4 uM NADPH, 1 mM aKG), 1 uL of test compound in DMSO was added. The plate was centrifuged briefly, and then 25 ul of enzyme mix was added (0.1 ug/mL ICDH1 G97D) followed by a brief centrifugation and shake at 100 RPM. The reaction was incubated for 50 minutes at room temperature, then 25 ul of detection mix (30 uM resazurin, 36 ug/ml diaphorase) was added, and the mixture further incubated for 5 minutes at room temperature. The activity readout as a result of the conversion of resazurin to resorufin was detected by fluorescent spectroscopy at excitation 544 nm and emission 590 nm (c/o 590 nm).

glioblastoma multiforme = conditions: persons newly diagnosed with glioblastoma multiforme; cited from earlier work

| SMILES | IC50 (IDH1 G97D) [µM] | tolerability (glioblastoma multiforme) |
| --- | --- | --- |
| O=C1/C(=C/c2ccc(F)cc2)C(CSc2ccc(Cl)cc2)=NN1c1nc2ccccc2s1 | 1 to 5 | – |
| N#C/C(=C\c1ccc(-c2cc([N+](=O)[O-])ccc2O)o1)c1nc2ccccc2[nH]1 | 1 to 5 | – |
| CCCCC1=NN2C(=N)/C(=C/c3ccc(-c4ccc([NH2+][O-])cc4Cl)o3)C(=O)N=C2S1 | 1 to 5 | – |
| O=C1NC(=S)S/C1=C\c1ccc(-c2ccc(N3CCOCC3)c([N+](=O)[O-])c2)o1 | 5 to 10 | – |
| Cn1nnc2c(C(N)=O)ncn2c1=O [temozolomide, Temozolomide] | – | well tolerated |
